Assay results taken from patent KR20190126525A, “신규 소듐채널 저해 화합물, 이의 제조방법, 및 이를 포함하는 소듐채널 관련 질환의 예방 또는 치료용 약학적 조성물” (이화여자대학교 산학협력단, priority 2018, dated 2019).

Assays:
Nav1.7 = molecular target: T1, Nav1.7 (Homo sapiens, UniProt Q15858); assay: VIPR (voltage/ion probe reader) membrane potential assay, Nav1.7; format: cell-based; details: for inhibition at 10 µM: HEK293, HEK cells expressing hNav1.7, veratridine; for selective inhibitory activity against Nav1.7: Nav1.7 versus Nav1.8, 10uM, from Table 2
T1 construct: host or cells: HEK cells

Nav1.8 = molecular target: T2, Nav1.8 (Homo sapiens, UniProt Q9Y5Y9); assay: VIPR (voltage/ion probe reader) membrane potential assay, Nav1.8; format: cell-based; details: HEK293, HEK cells expressing hNav1.8, veratridine
T2 construct: host or cells: HEK cells
T2 sequence (Q9Y5Y9 whole entry): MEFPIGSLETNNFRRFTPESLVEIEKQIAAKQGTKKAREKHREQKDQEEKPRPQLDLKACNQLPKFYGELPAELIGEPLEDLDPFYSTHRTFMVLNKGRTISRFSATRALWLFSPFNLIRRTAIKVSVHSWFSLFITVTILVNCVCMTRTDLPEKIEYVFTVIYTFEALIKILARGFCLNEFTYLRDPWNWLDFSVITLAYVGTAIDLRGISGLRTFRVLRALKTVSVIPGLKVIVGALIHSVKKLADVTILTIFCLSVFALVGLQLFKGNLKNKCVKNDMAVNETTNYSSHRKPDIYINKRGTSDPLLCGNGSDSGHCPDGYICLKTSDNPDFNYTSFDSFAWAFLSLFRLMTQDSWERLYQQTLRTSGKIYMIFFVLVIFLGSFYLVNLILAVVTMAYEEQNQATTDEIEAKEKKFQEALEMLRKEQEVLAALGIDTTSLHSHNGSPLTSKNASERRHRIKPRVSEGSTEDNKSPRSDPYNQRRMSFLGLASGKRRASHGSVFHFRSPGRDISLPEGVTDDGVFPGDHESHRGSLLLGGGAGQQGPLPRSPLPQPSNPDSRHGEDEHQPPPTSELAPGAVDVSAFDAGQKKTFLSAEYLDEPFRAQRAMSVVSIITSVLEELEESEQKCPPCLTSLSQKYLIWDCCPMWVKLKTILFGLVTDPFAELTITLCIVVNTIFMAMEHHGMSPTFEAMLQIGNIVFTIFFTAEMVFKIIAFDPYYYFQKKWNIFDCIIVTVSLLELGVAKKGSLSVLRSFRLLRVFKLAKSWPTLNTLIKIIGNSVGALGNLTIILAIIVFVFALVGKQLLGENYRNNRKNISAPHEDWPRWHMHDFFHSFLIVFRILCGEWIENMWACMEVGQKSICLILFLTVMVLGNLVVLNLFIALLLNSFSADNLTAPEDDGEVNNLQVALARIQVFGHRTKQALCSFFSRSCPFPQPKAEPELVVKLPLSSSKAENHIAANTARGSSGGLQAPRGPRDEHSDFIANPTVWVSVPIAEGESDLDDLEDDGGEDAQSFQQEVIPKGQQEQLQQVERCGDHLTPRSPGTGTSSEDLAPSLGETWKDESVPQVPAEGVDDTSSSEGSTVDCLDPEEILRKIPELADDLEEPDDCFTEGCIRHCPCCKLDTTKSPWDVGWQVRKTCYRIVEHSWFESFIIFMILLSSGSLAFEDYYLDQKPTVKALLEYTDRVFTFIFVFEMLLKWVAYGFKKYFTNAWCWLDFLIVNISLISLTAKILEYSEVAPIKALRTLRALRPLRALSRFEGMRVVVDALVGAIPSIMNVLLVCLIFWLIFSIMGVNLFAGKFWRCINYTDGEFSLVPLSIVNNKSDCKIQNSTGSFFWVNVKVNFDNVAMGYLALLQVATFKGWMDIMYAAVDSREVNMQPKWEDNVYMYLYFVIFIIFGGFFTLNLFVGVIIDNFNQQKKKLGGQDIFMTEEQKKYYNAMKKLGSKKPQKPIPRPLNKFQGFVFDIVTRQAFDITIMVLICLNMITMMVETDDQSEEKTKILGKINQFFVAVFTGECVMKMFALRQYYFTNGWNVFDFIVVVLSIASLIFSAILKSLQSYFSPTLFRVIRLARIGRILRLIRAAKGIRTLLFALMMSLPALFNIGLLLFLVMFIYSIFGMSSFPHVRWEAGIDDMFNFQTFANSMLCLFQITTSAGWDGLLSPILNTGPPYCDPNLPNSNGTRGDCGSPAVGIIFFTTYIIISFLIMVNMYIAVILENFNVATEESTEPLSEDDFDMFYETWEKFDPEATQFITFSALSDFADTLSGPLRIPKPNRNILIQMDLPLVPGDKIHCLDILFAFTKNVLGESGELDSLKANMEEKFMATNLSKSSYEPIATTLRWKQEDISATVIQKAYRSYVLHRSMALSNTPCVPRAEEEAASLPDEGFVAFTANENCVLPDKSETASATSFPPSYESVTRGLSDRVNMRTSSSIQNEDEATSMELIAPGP

T1 sequence (Q15858 whole entry): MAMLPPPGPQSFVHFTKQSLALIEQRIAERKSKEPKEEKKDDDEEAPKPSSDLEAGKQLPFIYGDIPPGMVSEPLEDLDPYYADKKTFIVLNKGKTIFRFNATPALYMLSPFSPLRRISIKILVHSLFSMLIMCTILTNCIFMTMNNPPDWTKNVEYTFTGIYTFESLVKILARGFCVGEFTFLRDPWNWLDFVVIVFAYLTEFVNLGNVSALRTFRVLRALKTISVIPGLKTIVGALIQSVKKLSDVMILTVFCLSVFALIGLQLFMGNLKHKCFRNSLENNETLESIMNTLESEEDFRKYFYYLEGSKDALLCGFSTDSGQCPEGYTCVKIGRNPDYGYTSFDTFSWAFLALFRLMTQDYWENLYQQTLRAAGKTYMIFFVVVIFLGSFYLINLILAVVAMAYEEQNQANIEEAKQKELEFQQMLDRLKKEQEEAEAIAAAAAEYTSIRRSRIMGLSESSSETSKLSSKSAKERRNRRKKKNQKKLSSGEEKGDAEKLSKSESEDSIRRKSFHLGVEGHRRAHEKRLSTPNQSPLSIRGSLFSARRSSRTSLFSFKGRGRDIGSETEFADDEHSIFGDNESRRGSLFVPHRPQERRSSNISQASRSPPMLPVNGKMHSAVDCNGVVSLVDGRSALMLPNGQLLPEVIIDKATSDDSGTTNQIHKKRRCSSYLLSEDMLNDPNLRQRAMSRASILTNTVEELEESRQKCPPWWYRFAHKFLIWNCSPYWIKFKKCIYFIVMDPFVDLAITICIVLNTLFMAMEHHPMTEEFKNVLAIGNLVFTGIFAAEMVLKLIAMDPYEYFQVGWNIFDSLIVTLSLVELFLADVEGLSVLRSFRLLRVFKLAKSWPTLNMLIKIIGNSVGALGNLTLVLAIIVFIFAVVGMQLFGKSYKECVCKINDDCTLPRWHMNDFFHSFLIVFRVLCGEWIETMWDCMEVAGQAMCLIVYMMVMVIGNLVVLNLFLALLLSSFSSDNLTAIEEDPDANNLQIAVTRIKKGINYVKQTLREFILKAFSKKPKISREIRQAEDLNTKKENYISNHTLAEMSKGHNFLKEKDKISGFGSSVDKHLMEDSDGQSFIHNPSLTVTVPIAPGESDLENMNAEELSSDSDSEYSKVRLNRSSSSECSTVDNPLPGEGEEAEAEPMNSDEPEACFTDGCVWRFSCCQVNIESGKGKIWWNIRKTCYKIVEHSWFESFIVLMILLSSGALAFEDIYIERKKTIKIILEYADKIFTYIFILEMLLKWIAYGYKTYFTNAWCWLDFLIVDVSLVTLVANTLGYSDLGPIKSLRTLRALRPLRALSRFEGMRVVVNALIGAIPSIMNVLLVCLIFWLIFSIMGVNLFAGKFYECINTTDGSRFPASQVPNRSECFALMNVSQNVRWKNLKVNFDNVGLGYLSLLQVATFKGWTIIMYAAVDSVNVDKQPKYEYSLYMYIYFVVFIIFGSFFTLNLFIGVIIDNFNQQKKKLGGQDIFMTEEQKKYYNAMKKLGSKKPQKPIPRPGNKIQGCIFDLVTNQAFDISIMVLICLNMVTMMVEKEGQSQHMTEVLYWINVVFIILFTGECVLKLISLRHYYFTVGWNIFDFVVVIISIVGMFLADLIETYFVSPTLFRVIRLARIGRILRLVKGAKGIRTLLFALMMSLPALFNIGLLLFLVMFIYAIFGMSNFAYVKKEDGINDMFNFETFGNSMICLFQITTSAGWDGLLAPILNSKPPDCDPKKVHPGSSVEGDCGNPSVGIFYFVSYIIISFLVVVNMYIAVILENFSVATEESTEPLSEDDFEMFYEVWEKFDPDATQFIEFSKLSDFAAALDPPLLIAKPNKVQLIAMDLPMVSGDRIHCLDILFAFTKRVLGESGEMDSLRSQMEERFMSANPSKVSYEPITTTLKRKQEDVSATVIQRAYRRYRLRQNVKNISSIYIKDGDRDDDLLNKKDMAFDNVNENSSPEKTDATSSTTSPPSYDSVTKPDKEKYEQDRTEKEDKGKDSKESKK

Q: Which results are given for C[C@H](NCc1c[nH]c2ccc(OCc3ccccc3)cc12)C(N)=O [실시예 1, (S)-2-((5-(벤질옥시)-1H-인돌-3-일)메틸아미노)프로판아미드]?
A: inhibition at 10 µM (Nav1.7): 5.13%; inhibition at 10 µM (Nav1.8): 19.7%

Q: How did the inhibition at 10 µM (Nav1.7) turn out when C[C@H](NCc1c[nH]c2ccc(Br)cc12)C(N)=O [실시예 2, (S)-2-((5-브로모-1H-인돌-3-일)메틸아미노)프로판아미드] was run?
A: 59.9%

Q: What about the “selective inhibitory activity against Nav1.7” value (“selective inhibitory activity” for short) (Nav1.7) of the same compound?
A: 선택적인 저해 활성

Q: And the inhibition at 10 µM (Nav1.8)?
A: 27.4%

Q: How did the inhibition at 10 µM (Nav1.7) turn out when C[C@H](NCc1c[nH]c2ccc(Cl)cc12)C(N)=O [실시예 3, (S)-2-((5-클로로-1H-인돌-3-일)메틸아미노)프로판아미드] was run?
A: 2.46%

Q: And the inhibition at 10 µM (Nav1.8)?
A: 20.7%

Q: For COc1ccc2[nH]cc(CN[C@@H](C)C(N)=O)c2c1 [실시예 5, (S)-2-((5-메톡시-1H-인돌-3-일)메틸아미노)프로판아미드], which inhibition at 10 µM (Nav1.7) is on record?
A: 4.3%

Q: And the inhibition at 10 µM (Nav1.8)?
A: 18.3%

Q: For NC(=O)[C@@H](NCc1c[nH]c2ccc(Cl)cc12)c1ccccc1 [실시예 7, (S)-2-((5-클로로-1H-인돌-3-일)메틸아미노)-2-페닐아세트아미드], which inhibition at 10 µM (Nav1.8) is on record?
A: 3.45%

Q: How did the inhibition at 10 µM (Nav1.8) turn out when NC(=O)[C@@H](NCc1cc(-c2ccc(Cl)cc2)on1)c1ccccc1 [실시예 9, (S)-2-((5-(4-클로로페닐)이속사졸-3-일)메틸아미노)-2-페닐아세트아미드] was run?
A: 1.77%

Q: For NC(=O)[C@@H](NCc1ccc(Oc2ccc(F)cc2)cc1)c1ccccc1 [실시예 10, (S)-2-(4-(4-플루오로페녹시)벤질아미노)-2-페닐아세트아미드], which inhibition at 10 µM (Nav1.7) is on record?
A: 31.3%

Q: And the inhibition at 10 µM (Nav1.8)?
A: 11.3%

Q: What does the source list for NC(=O)[C@@H](NCc1ccc(Oc2ccc(Cl)cc2)cc1)c1ccccc1 [실시예 11, (S)-2-(4-(4-클로로페녹시)벤질아미노)-2-페닐아세트아미드]?
A: inhibition at 10 µM (Nav1.7): 3.68%; inhibition at 10 µM (Nav1.8): 19.5%

Q: What does the source list for CC(CCc1ccccc1)NCc1ccc(-c2cccc(C(F)(F)F)c2)o1 (stereo not shown) [실시예 12, 4-페닐-N-((5-(3-(트리플루오로메틸)페닐)퓨란-2-일)메틸)부탄-2-아민]?
A: inhibition at 10 µM (Nav1.7): 104%; selective inhibitory activity against Nav1.7 (Nav1.7): 선택적인 저해 활성; inhibition at 10 µM (Nav1.8): 54.4%

Q: CC(CCc1ccccc1)NCc1ccc(N2CCN(C)CC2)cc1 (stereo not shown) [실시예 13, N-(4-(4-메틸피페라진-1-일)벤질)-4-페닐부탄-2-아민] was tested. Which inhibition at 10 µM (Nav1.7) did it give?
A: 66.4%

Q: What about the “selective inhibitory activity” value (Nav1.7) of the same compound?
A: 선택적인 저해 활성

Q: And the inhibition at 10 µM (Nav1.8)?
A: 4.97%

Q: What does the source list for CC(CCc1ccccc1)NCc1ccc(N2CCOCC2)cc1 (stereo not shown) [실시예 14, N-(4-모폴리노벤질)-4-페닐부탄-2-아민]?
A: inhibition at 10 µM (Nav1.7): 87.1%; selective inhibitory activity against Nav1.7 (Nav1.7): 선택적인 저해 활성; inhibition at 10 µM (Nav1.8): 10.2%

Q: Which inhibition at 10 µM (Nav1.7) does the source give for CC(CCc1ccccc1)NCc1ccc(-c2ccc(Cl)cc2)o1 (stereo not shown) [실시예 15, N-((5-(4-클로로페닐)퓨란-2-일)메틸)-4-페닐부탄-2-아민] here?
A: 34.6%

Q: What about the inhibition at 10 µM (Nav1.8) of the same compound?
A: 42.2%

Q: Which results are given for COc1ccc(-c2ccc(CNC(C)CCc3ccccc3)o2)cc1Cl (stereo not shown) [실시예 18, N-((5-(3-클로로-4-메톡시페닐)퓨란-2-일)메틸)-4-페닐부탄-2-아민]?
A: inhibition at 10 µM (Nav1.7): 65.9%; selective inhibitory activity against Nav1.7 (Nav1.7): 선택적인 저해 활성; inhibition at 10 µM (Nav1.8): 6.75%

Q: With CC(CCc1ccccc1)NCc1ccc(-c2cncnc2)cc1 (stereo not shown) [실시예 19, 4-페닐-N-(4-(피리미딘-5-일)벤질)부탄-2-아민] as the compound, how does the inhibition at 10 µM (Nav1.7) read?
A: 29.8%

Q: Which results are given for CC(CCc1ccccc1)NCc1ccc(Oc2ccc(C#N)cc2)cc1 (stereo not shown) [실시예 20, 4-(4-((4-페닐부탄-2-일)아미노메틸)페녹시)벤조나이트릴]?
A: inhibition at 10 µM (Nav1.7): 106%; selective inhibitory activity against Nav1.7 (Nav1.7): 선택적인 저해 활성; inhibition at 10 µM (Nav1.8): 42.2%

Q: Which inhibition at 10 µM (Nav1.7) does the source give for CC(CCc1ccccc1)NCc1c[nH]c2ccc(Cl)cc12 (stereo not shown) [실시예 21, N-((5-클로로-1H-인돌-3-일)메틸)-4-페닐부탄-2-아민] here?
A: 38.5%

Q: CC(CCc1ccccc1)NCc1c[nH]c2ccccc12 (stereo not shown) [실시예 22, N-((1H-인돌-3-일)메틸)-4-페닐부탄-2-아민] was tested. Which inhibition at 10 µM (Nav1.7) did it give?
A: 14.2%

Q: CC(CCc1ccccc1)NCc1ccc(Oc2ccc(F)cc2)cc1 (stereo not shown) [실시예 23, N-(4-(4-플루오로페녹시)벤질)-4-페닐부탄-2-아민] was tested. Which inhibition at 10 µM (Nav1.7) did it give?
A: 33.9%

Q: How did the inhibition at 10 µM (Nav1.7) turn out when CC(CCc1ccccc1)NCc1ccc(Oc2ccc(Cl)cc2)cc1 (stereo not shown) [실시예 24, N-(4-(4-클로로페녹시)벤질)-4-페닐부탄-2-아민] was run?
A: 10.2%

Q: CC(CCc1ccccc1)NC(=O)c1ccc(-c2ccccc2)cc1 (stereo not shown) [실시예 25, N-(4-페닐부탄-2-일)-[1,1'-바이페닐]-4-카복스아미드] was tested. Which inhibition at 10 µM (Nav1.7) did it give?
A: 84%

Q: And the “selective inhibitory activity” value (Nav1.7)?
A: 선택적인 저해 활성

Q: What about the inhibition at 10 µM (Nav1.8) of the same compound?
A: 31.2%

Q: Which results are given for CC(CCc1ccccc1)NC(=O)c1cccc2ccccc12 (stereo not shown) [실시예 27, N-(4-페닐부탄-2-일)-1-나프타미드]?
A: inhibition at 10 µM (Nav1.7): 4.12%; inhibition at 10 µM (Nav1.8): 59.2%

Q: For Cc1onc(-c2ccc(Cl)cc2)c1C(=O)NC(C)CCc1ccccc1 (stereo not shown) [실시예 28, 3-(4-클로로페닐)-5-메틸-N-(4-페닐부탄-2-일)이속사졸-4-카복스아미드], which inhibition at 10 µM (Nav1.7) is on record?
A: 24.4%

Q: How did the inhibition at 10 µM (Nav1.7) turn out when COc1cc(CNCc2c[nH]c3ccccc23)cc(OC)c1OC [실시예 29, N-((1H-인돌-3-일)메틸)-1-(3,4,5-트리메톡시페닐)메탄아민] was run?
A: 16.4%

Q: Which inhibition at 10 µM (Nav1.7) does the source give for COc1cc(CNCc2c(-c3ccccc3)[nH]c3ccccc23)cc(OC)c1OC [실시예 30, 1-(2-페닐-1H-인돌-3-일)-N-(3,4,5-트리메톡시페닐)메탄아민] here?
A: 12.1%

Q: And the inhibition at 10 µM (Nav1.8)?
A: 3.3%

Q: With COc1cc(CNCc2ccc(Oc3ccc(F)cc3)cc2)cc(OC)c1OC [실시예 31, N-(4-(4-플루오로페녹시)벤질)-1-(3,4,5-트리메톡시페닐)메탄아민] as the compound, how does the inhibition at 10 µM (Nav1.7) read?
A: 16.6%

Q: For COc1cc(CNCc2ccc(Oc3ccc(Cl)cc3)cc2)cc(OC)c1OC [실시예 32, N-(4-(4-클로로페녹시)벤질)-1-(3,4,5-트리메톡시페닐)메탄아민], which inhibition at 10 µM (Nav1.7) is on record?
A: 15.2%

Q: Which inhibition at 10 µM (Nav1.7) does the source give for COc1cc(CNCc2c[nH]c3ccc(OCc4ccccc4)cc23)cc(OC)c1OC [실시예 33, 1-(5-(벤질옥시)-1H-인돌-3-일)-N-(3,4,5-트리메톡시벤질)메탄아민] here?
A: 34.9%

Q: And the inhibition at 10 µM (Nav1.8)?
A: 5.87%

Q: How did the inhibition at 10 µM (Nav1.7) turn out when COc1cc(CNCc2c[nH]c3ccc(Br)cc23)cc(OC)c1OC [실시예 34, 1-(5-브로모-1H-인돌-3-일)-N-(3,4,5-트리메톡시벤질)메탄아민] was run?
A: 27%

Q: And the inhibition at 10 µM (Nav1.8)?
A: 13.9%

Q: COc1cc(CNCc2c[nH]c3cc(F)ccc23)cc(OC)c1OC [실시예 35, 1-(6-플루오로-1H-인돌-3-일)-N-(3,4,5-트리메톡시벤질)메탄아민] was tested. Which inhibition at 10 µM (Nav1.7) did it give?
A: 38.2%

Q: COc1ccc2[nH]cc(CNCc3cc(OC)c(OC)c(OC)c3)c2c1 [실시예 36, 1-(5-메톡시-1H-인돌-3-일)-N-(3,4,5-트리메톡시벤질)메탄아민] was tested. Which inhibition at 10 µM (Nav1.7) did it give?
A: 23.7%

Q: What does the source list for COc1cc(CNCc2c[nH]c3c([N+](=O)[O-])cccc23)cc(OC)c1OC [실시예 37, 1-(7-니트로-1H-인돌-3-일)-N-(3,4,5-트리메톡시벤질)메탄아민]?
A: inhibition at 10 µM (Nav1.7): 4.08%; inhibition at 10 µM (Nav1.8): 8.81%

Q: What does the source list for COc1cc(CNC(=O)c2ccc(-c3ccccc3)cc2)cc(OC)c1OC [실시예 38, N-(3,4,5-트리메톡시벤질)-[1,1'-바이페닐]-4-카복스아미드]?
A: inhibition at 10 µM (Nav1.7): 6.9%; inhibition at 10 µM (Nav1.8): 18.3%

Q: What does the source list for COc1cc(CNC(=O)c2ccc3ccccc3n2)cc(OC)c1OC [실시예 41, N-(3,4,5-트리메톡시벤질)퀴놀린-2-카복스아미드]?
A: inhibition at 10 µM (Nav1.7): 71.7%; selective inhibitory activity against Nav1.7 (Nav1.7): 선택적인 저해 활성; inhibition at 10 µM (Nav1.8): 19.3%
